The text below walks through data of patent US11912723B2, “KRAS modulators and uses thereof” (Quanta Therapeutics, Inc., priority 2022, dated 2024).

A value given as a limit tells only on which side of the number the result lay.

For test [1], the target named is T1, GST-tagged KRAS G12D (2-169) (Homo sapiens, UniProt P01116, G12D).
T1 construct: GST-tagged KRAS^G12D (2-169, Reaction Biology, MSC-11-539); purchased Reaction Biology MSC-11-539 (KRAS G12D); MSC-11-502 (SOS1cat)
Briefly: Nucleotide exchange assay (NEA), HTRF of SOS-mediated GTP-DY-647P1 binding. It counts as biochemical. The conditions noted are these: 5 nM GST-KRAS G12D, 20 nM SOScat, 150 nM GTP; compound 1 h at RT. From the text: This activity is tightly regulated by GTPase activating proteins (GAPs) and guanine nucleotide exchange factors (GEFs). GEFs, such as SOS1/2, activate Ras proteins by exchanging GDP for GTP, thus returning Ras to its active conformation (Simanshu, Nissley, & McCormick, 2017). […] Homogenous time resolved fluorescence (HTRF) was used to detect SOS-mediated binding of a fluorescent GTP analog, GTP-DY-647P1 (Jena Biosciences NU-820-647P1) to GST-tagged KRAS^G12D (2-169, Reaction Biology, MSC-11-539).
GST-tagged KRAS^G12D (2-169) and anti-GST MAb Tb Cryptate Gold (CisBio 61GSTTLB) were diluted into assay buffer (20 mM HEPES, pH 7.3, 150 mM NaCl, 5 mM MgCl2, 0.05% BSA 0.0025% NP40, 1 mM DTT) to prepare a 2.5× donor solution. 5× compound was added to the protein mixture and incubated for 1 h at RT. 2.5× acceptor solution containing SOS1cat (564-1049, Reaction Biology MSC-11-502) and GTP-DY-647P1 were then added to the donor KRAS mixture such that the final concentration of the reaction contained 5 nM GST-tagged KRAS^G12D (2-169), 20 nM SOScat, and 150 nM GTP. The reaction was monitored using at RT with the Envision multimode plate reader (Ex/Em 337/665, […]) up to 90 minutes at 5 minute intervals. Data was blanked to reactions without SOS1 and % inhibition was calculated such that DMSO only=0% and blank=100%. Curve fitting was done using a 4 parameter fit. NEA KRAS G12D ID50 (uM) values of selected compounds are depicted in Table 2 with compounds having a value<0.01 uM as ++++; >0.01 uM to 0.1 uM as +++; >0.1 uM to 1 uM as ++; >1 uM to 20 uM as +; and >20 uM as NA.
In general terms: TR-FRET usually uses a lanthanide donor and a delayed reading to cut background.

The target in test [2] is T2, KRAS G12D/RAF1 (Homo sapiens, UniProt P01116, G12D).
T2 construct: KRAS (1-169) proteins were expressed in E. coli at 18° C; His6-MBP (N, cleaved yes); made in house; host or cells: E. coli
Briefly: Protein-protein interaction (PPI) HTRF assay KRAS G12D/RAF1. Type of test: binding. The conditions noted are these: KRAS G12D/RAF1, GppNHp-loaded KRAS; 30 minutes pre-incubation. Here is the method:
Biotinylated KRAS wt and KRAS G12DNV proteins were expressed and purified in conditions similar to those previously reported (Tran, et al., 2021) (Zhang, et al., 2020). Briefly, KRAS (1-169) proteins were expressed in E. coli at 18° C. with an upstream TEV cleavage site (ENLFYQS) followed an Avi tag sequence ([…]). KIRAS expression constructs contained both a His6 and maltose-binding protein (MBP) tags at the N-terminus for Ni-NTA column purification prior to overnight TEV cleavage and MBP column purification. The avi-tagged NRAS expression construct contained both a His6 tag and SUMO cleavage sige at the N-terminus for Ni-NTA column purification followed by His-ULP1 digestion overnight. All avi-tagged RAS proteins were dialyzed into buffer containing ATP, biotin, and BirA followed by purification over a second Ni-NTA column and then run over a size exclusion HiLoad™ 26/600 Superdex™ column in 20 mM HEPES, pH 7.5, 300 mM NaCl, 5 mM MgCl2, and 1 mM TCEP. Fractions containing the protein of interest were pooled, concentrated, and confirmed by intact mass spectrometry. To prepare ‘GTP’ loaded KRAS and NRAS, biotinylated KRAS or NRAS was nucleotide exchanged from GDP-bound protein to GppNHp-bound (Jena Biosciences, NU-401-50) protein in the presence of alkaline phosphatase and excess GppNHp as previously described and the resulting nucleotide content was confirmed by HPLC reverse phase analytical chromatography (Donohue, et al., 2019) (Tran, et al., 2021).
His-tagged RAF1 (52-131) was similarly expressed in E. coli at 18° C. overnight with an upstream TEV cleavage site. His-tagged RAF1 expression construct contained both a His6 and MBP tags at the N-terminus for Ni-NTA column purification followed by MBP-tagged TEV digestion overnight. RAF1 protein samples were further purified over a MBP column followed by a Ni-NTA column and a second MBP column. The fractions containing the protein of interest were pooled, concentrated, and further purified over a HiLoad™ 16/600 Superdex™ 75 pg size exclusion column into 20 mM HEPES, pH8.0, 200 mM NaCl, 5 mM TCEP.
When RAS proteins are in the active GTP-bound conformation, they bind the effector protein RAF1 at the N-terminus Ras-binding domain (RBD, residues 52-131) (Tran, et al., 2021). Homogenous time resolved fluorescence (HTRF) was used to monitor the interaction between wt or mutant KRAS and RAF1 or wt NRAS and RAFT. Compounds were assayed in the presence of KRAS G12D/V and RAF1 versus wt KRAS to assess activity against mutant and w.t. KRAS. Similarly, compounds were then assayed in the presence of w.t. NRAS and RAF1 to assess RAS isoform selectivity. In all assay formats, His-tagged RAF1 protein was incubated with the HTRF donor, anti-6His Tb Cryptate gold (Cisbio 61DB10RDF), and biotinylated RAS proteins were incubated with the HTRF acceptor, streptavidin-d2 (CisBio 610SADLA). The intensity of the fluorescence signal emitted is proportional to binding between the two proteins. The donor solution was prepared by mixing 16 nM His-tagged RAF1 in protein dilution buffer with 1:100 anti-6His Tb cryptate in PPI-Terbium detection buffer. 16 nM biotinylated RAS protein was diluted into protein dilution buffer (50 mM Tris-HCl pH 7.5, 150 mM NaCl, 0.1 mM MgCl2, 1 mM TCEP, 0.005% Tween20) and mixed with 1:2000 Streptavidin-d2 diluted in PPI-Terbium detection buffer (CisBio 61DB10RDF). 50× compound in DMSO was mixed with 16 nM KRAS-acceptor solution and incubated for 30 minutes at room temperature. After compound pre-incubation with KRAS, the RAF1 donor solution was added to the KRAS-acceptor solution and incubated for 1 hour at room temperature. The fluorescence signal emitted was monitored at 665 nm and 615 nm using an Envision multimode plate reader. The HTRF ratio (665/615) was calculated and normalized to 0% inhibition in the absence of compound and 100% inhibition in the presence of untagged RAF1 protein. […]

T2 sequence (P01116 1-169 isoform P01116-2 G12D): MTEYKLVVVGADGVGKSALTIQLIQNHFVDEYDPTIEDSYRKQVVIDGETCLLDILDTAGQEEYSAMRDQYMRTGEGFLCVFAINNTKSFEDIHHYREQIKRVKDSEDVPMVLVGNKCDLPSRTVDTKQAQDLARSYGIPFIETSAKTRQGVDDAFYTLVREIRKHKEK
T1 sequence (P01116 2-169 isoform P01116-2 G12D): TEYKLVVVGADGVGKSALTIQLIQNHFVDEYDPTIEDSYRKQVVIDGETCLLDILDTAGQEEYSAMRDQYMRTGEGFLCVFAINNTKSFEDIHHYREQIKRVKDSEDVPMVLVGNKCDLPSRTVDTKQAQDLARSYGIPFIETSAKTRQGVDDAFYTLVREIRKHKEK

For `O=C1NC(=O)[C@@H]2CN(c3nc(OC[C@@]45CCCN4C[C@H](F)C5)nc4c3CO[C@@]3(CCc5c(Cl)cccc53)C4)C[C@H]12` [Compound 33, (3aR,6aS)-5-[(7S)-4′-chloro-2-[[(2R,8S)-2-fluoro-1,2,3,5,6,7-hexahydropyrrolizin-8-yl]methoxy]spiro[5,8-dihydropyrano[4,3-d]pyrimidine-7,1′-indane]-4-yl]-3a,4,6,6a-tetrahydropyrrolo[3,4-c]pyrrole-1,3-dione], the IC50 (as a rule, the concentration that inhibits the measured activity by half) lay in the range of 100 to 1000 nM in test [1] and 10000 to 100000 nM in test [2].
For `CC(C)NC(=O)c1cc2n(n1)CCCN(c1nc(OC[C@@]34CCCN3C[C@H](F)C4)nc3c1CO[C@@]1(CCc4c(Cl)cccc41)C3)C2` [Compound 35, 5-[(7S)-4′-chloro-2-[[(2R,8S)-2-fluoro-1,2,3,5,6,7-hexahydropyrrolizin-8-yl]methoxy]spiro[5,8-dihydropyrano[4,3-d]pyrimidine-7,1′-indane]-4-yl]-N-isopropyl-4,6,7,8-tetrahydropyrazolo[1,5-a][1,4]diazepine-2-carboxamide] the same measures were 10 to 100 nM and > 100000 nM.
As for `CN(C)C(=O)c1nn2c(c1Cl)CN(c1nc(OC[C@@]34CCCN3C[C@H](F)C4)nc3c1CO[C@@]1(CCc4c(Cl)cccc41)C3)CCC2` [Compound 36, 3-chloro-5-[(7S)-4′-chloro-2-[[(2R,8S)-2-fluoro-1,2,3,5,6,7-hexahydropyrrolizin-8-yl]methoxy]spiro[5,8-dihydropyrano[4,3-d]pyrimidine-7,1′-indane]-4-yl]-N,N-dimethyl-4,6,7,8-tetrahydropyrazolo[1,5-a][1,4]diazepine-2-carboxamide], the values for the IC50 in test [1] and in test [2] were < 10 nM and 10000 to 100000 nM, respectively.
For `CN(O)C(=O)c1cc2n(n1)CCCN(c1nc(OC[C@@]34CCCN3C[C@H](F)C4)nc3c1CO[C@@]1(CCc4c(Cl)cccc41)C3)C2` [Compound 37, 5-[(7S)-4′-chloro-2-[[(2R,8S)-2-fluoro-1,2,3,5,6,7-hexahydropyrrolizin-8-yl]methoxy]spiro[5,8-dihydropyrano[4,3-d]pyrimidine-7,1′-indane]-4-yl]-N-hydroxy-N-methyl-4,6,7,8-tetrahydropyrazolo[1,5-a][1,4]diazepine-2-carboxamide] the same measures were < 10 nM and > 100000 nM.
For `O=C(c1cc2n(n1)CCCN(c1nc(OC[C@@]34CCCN3C[C@H](F)C4)nc3c1CO[C@@]1(CCc4c(Cl)cccc41)C3)C2)N1CCOCC1` [Compound 38, morpholino-[5-[(7S)-4′-chloro-2-[[(2R,8S)-2-fluoro-1,2,3,5,6,7-hexahydropyrrolizin-8-yl]methoxy]spiro[5,8-dihydropyrano[4,3-d]pyrimidine-7,1′-indane]-4-yl]-4,6,7,8-tetrahydropyrazolo[1,5-a][1,4]diazepin-2-yl]methanone; 2,2,2-trifluoroacetic acid], the IC50 was < 10 nM in test [1] and 10000 to 100000 nM in test [2].
Take `CN(C)C(=O)c1cc2n(n1)CCCN(c1nc(OC[C@@]34CCCN3C[C@H](F)C4)nc3c1COC1(CCCc4ccc(O)c(Cl)c41)C3)C2` (stereo partly drawn) [Compound 40, 5-[8′-chloro-7′-hydroxy-2-[[(2R,8S)-2-fluoro-1,2,3,5,6,7-hexahydropyrrolizin-8-yl]methoxy]spiro[5,8-dihydropyrano[4,3-d]pyrimidine-7,1′-tetralin]-4-yl]-N,N-dimethyl-4,6,7,8-tetrahydropyrazolo[1,5-a][1,4]diazepine-2-carboxamide]: the IC50 in test [1] is 10 to 100 nM; in test [2] it was > 100000 nM.
Consider `N=S1(=O)CCN(C(=O)c2nn3c(c2Cl)CN(c2nc(OC[C@@]45CCCN4C[C@H](F)C5)nc4c2CO[C@@]2(CCc5c(Cl)cccc52)C4)CCC3)CC1` [Compound 52, [3-chloro-5-[(7S)-4′-chloro-2-[[(2R,8S)-2-fluoro-1,2,3,5,6,7-hexahydropyrrolizin-8-yl]methoxy]spiro[5,8-dihydropyrano[4,3-d]pyrimidine-7,1′-indane]-4-yl]-4,6,7,8-tetrahydropyrazolo[1,5-a][1,4]diazepin-2-yl]-(1-imino-1-oxo-1,4-thiazinan-4-yl)methanone], for which the IC50 in test [1] was < 10 nM; in test [2] it was 10000 to 100000 nM.
The corresponding values for `CNCc1nn2c(c1Cl)CN(c1nc(OC[C@@]34CCCN3C[C@H](F)C4)nc3c1CO[C@@]1(CCc4c(Cl)cccc41)C3)CCC2` [Compound 59, 1-[3-chloro-5-[(7S)-4′-chloro-2-[[(2R,8S)-2-fluoro-1,2,3,5,6,7-hexahydropyrrolizin-8-yl]methoxy]spiro[5,8-dihydropyrano[4,3-d]pyrimidine-7,1′-indane]-4-yl]-4,6,7,8-tetrahydropyrazolo[1,5-a][1,4]diazepin-2-yl]-N-methyl-methanamine] are 10 to 100 nM and > 100000 nM.
On to `CS(=O)(=O)c1cc2n(n1)CCCN(c1nc(OC[C@@]34CCCN3C[C@H](F)C4)nc3c1CO[C@@]1(CCc4c(Cl)cccc41)C3)C2` [Compound 62, (7S)-4′-chloro-2-[[(2R,8S)-2-fluoro-1,2,3,5,6,7-hexahydropyrrolizin-8-yl]methoxy]-4-(2-methylsulfonyl-4,6,7,8-tetrahydropyrazolo[1,5-a][1,4]diazepin-5-yl)spiro[5,8-dihydropyrano[4,3-d]pyrimidine-7,1′-indane]], for which the values for the half-inhibitory concentration (IC50) in test [1] and in test [2] were 10 to 100 nM and > 100000 nM, respectively.
